The results in this text go back to US7709645B2, “Pyrrolo-pyridine kinase modulators” (SGX Pharmaceuticals, Inc., priority 2004, dated 2010).

Some results are limits rather than exact numbers.

As usually defined, the IC50 is the concentration at which inhibition is half-maximal.

For the assay, the target named is T1, PDK1 kinase (Homo sapiens, UniProt O15530).
T1 construct: 6x Histidine tag (TEV-cleavable) (cleaved yes); made in house; host or cells: Sf9 insect cells
T1 sequence (O15530 1-556): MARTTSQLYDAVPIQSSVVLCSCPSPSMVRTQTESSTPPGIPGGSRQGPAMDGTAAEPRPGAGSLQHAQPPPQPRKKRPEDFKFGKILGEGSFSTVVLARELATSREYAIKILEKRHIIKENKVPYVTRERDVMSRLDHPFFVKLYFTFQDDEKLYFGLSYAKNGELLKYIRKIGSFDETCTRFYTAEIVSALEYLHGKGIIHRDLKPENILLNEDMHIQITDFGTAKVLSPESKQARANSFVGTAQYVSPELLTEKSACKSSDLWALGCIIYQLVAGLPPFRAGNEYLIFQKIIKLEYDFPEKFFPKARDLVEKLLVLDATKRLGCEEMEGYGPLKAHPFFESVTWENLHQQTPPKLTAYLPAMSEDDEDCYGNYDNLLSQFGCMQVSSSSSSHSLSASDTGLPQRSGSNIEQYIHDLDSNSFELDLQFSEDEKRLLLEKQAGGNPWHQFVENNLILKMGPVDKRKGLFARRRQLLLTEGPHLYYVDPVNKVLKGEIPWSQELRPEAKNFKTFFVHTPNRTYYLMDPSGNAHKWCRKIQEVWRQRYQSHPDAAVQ
Description: PDK1 Bioassay (luminescence-based enzyme assay, Kinase-Glo). It is filed as biochemical. The following applies: 5 μM ATP. The source says:
In addition to the c-Abl PK/LDH coupled assay (above), homogeneous luminescence-based inhibitor screening assays were developed for c-Abl, MET, AurA, and PDK1 kinases (among others). Each of these assays made use of an ATP depletion assay (Kinase-Glo™, Promega Corporation, Madison, Wis.) to quantitate kinase activity. The Kinase-Glo™ format uses a thermostable luciferase to generate luminescent signal from ATP remaining in solution following the kinase reaction. The luminescent signal is inversely correlated with the amount of kinase activity.
Materials: PDKtide peptide substrate=KTFCGTPEYLAPEVRREPRJLSEEEQEMFRDFDYIADWC (SEQ ID NO:3) (Upstate Cat#12-401), ATP (Sigma Cat#A-3377, FW=551), HEPES buffer, pH 7.5, 10% Brij 35 (Calbiochem Cat#203728), MgCl2, Staurosporine (Streptomyces sp. Sigma Cat#85660-1MG), white Costar 384-well flat-bottom plate (VWR Cat#29444-088), PDK1 kinase (see below), Kinase-Glo™ (Promega Cat#V6712).
Stock Solutions: 1 mM PDKtide substrate (1 mg in 200 μl, as supplied by Upstate), stored at −20° C.; 100 mM HEPES buffer, pH 7.5 (5 ml 1M HEPES stock+45 ml miliQH2O); 10 mM ATP (5.51 mg/ml in dH2O) stored at −20° C. (diluted 25 μl into total of 10 ml miliQH2O daily=25 μM ATP working stock); 100 mM MgCl2; 10% Brij 35 stored at 2-8° C.; 200 μM Staurosporine, 2× Kinase-Glo™ reagent (made fresh or stored at −20° C.).
Standard Assay Setup for 384-well format (20 μl kinase reaction, 40 μl detection reaction): 10 mM MgCl2; 0.01 mM PDKtide; 1 μl test compound (in DMSO); 0.1 μg/ml PDK1 kinase; 5 μM ATP; 10 mM MgCl2; 100 mM HEPES+0.01% Brij buffer. Positive controls contained DMSO with no test compound. Negative controls contained 10 μM staurosporine. The kinase reactions were initiated at time t=0 by the addition of ATP. Kinase reactions were incubated at 21° C. for 40 min, then 20 μl of Kinase-Glo™ reagent were added to each well to quench the kinase reaction and initiate the luminescence reaction. After a 20 min incubation at 21° C., the luminescence was detected in a plate-reading luminometer.
Cell pellets produced from 6 L of Sf9 insect cells expressing human PDK1 were resuspended in a buffer containing 50 mM Tris-HCl pH 7.7 and 250 mM NaCl in a volume of approximately 40 mL per 1 L of original culture. One tablet of Roche Complete, EDTA-free protease inhibitor cocktail (Cat# 1873580) and 85 units Benzonase (Novagen Cat#70746-3)) were added per 1 L of original culture. The suspension was stirred for 1 hour at 4° C. Debris was removed by centrifugation for 30 minutes at 39,800×g at 4° C. The supernatant was decanted into a 500 mL beaker and 10 ml of a 50% slurry of Qiagen Ni-NTA Agarose (Cat#30250) that had been pre-equilibrated in 50 mM Tris-HCl pH 7.8, 500 mM NaCl, 10% Glycerol, 10 mM Imidazole, and 10 mM Methionine, were added and stirred for 30 minutes at 4° C. The sample was then poured into a drip column at 4° C. and washed with 10 column volumes of 50 mM Tris-HCl pH 7.8, 500 mM NaCl, 10% Glycerol, 10 mM Imidazole, and 10 mM Methionine. The protein was eluted using a step gradient with two column volumes each of the same buffer containing 50 mM, and 500 mM Imidazole, sequentially. The 6×Histidine tag was cleaved overnight using 40 units of TEV protease (Invitrogen Cat#10127017) per 1 mg of protein while dialyzing in 50 mM Tris-HCl pH 7.8, 500 mM NaCl, 10% Glycerol, 10 mM Imidazole, and 10 mM Methionine at 4° C. The 6× Histidine tag was removed by passing the sample over a Pharmacia 5 ml IMAC column (Cat# 17-0409-01) charged with Nickel and equilibrated in 50 mM Tris-HCl pH 7.8, 500 mM NaCl, 10% Glycerol, 10 mM Imidazole, and 10 mM Methionine. The cleaved protein eluted in the flow-through, whereas the uncleaved protein and the His-tag remained bound to the Ni-column. The cleaved protein fractions were combined and concentrated using spin concentrators. […]
In general terms: Kinase-Glo reads ATP consumption through a luciferase reaction.
As to `CNC(=O)c1cc(-c2cnc3[nH]cc(-c4ccccc4OC)c3c2)cs1` [AE2], the IC50 was in the range of 1 to 5 µM. With `COc1ccccc1-c1c[nH]c2ncc(-c3csc(C(=O)N(C)C)c3)cc12` [AE3], the IC50 is 1 to 5 µM. On to `COc1ccccc1-c1c[nH]c2ncc(-c3cc[nH]c(=O)c3)cc12` [AE9], for which the IC50 is 1 to 5 µM.

In turn, `COc1ccccc1-c1c[nH]c2ncc(-c3ccc4[nH]cc(CC(=O)O)c4c3)cc12` [AE10] yielded an IC50 of 1 to 5 µM. `COc1ccccc1-c1c[nH]c2ncc(-c3ccc(S(N)(=O)=O)s3)cc12` [AE11] registered an IC50 of 1 to 5 µM. Molecule `N#Cc1cc(-c2cnc3[nH]cc(-c4ccc5[nH]ccc5c4)c3c2)ccc1O` [AE20] had a half-maximal inhibitory concentration (IC50) of 1 to 5 µM. Regarding `COc1ccccc1-c1c[nH]c2ncc(-c3ccc(S(N)(=O)=O)cc3)cc12` [AE21], the 50% inhibitory concentration (IC50) lay in the range of 1 to 5 µM. As to `Oc1cccc(-c2cnc3[nH]cc(-c4ccc(O)c(F)c4)c3c2)c1` [AE48], the IC50 was 1 to 5 µM.

With `Oc1cccc(-c2cnc3[nH]cc(-c4ccn[nH]4)c3c2)c1` [AE49], the IC50 was 1 to 5 µM. `Nc1nc(-c2c[nH]c3ncc(-c4ccc5[nH]ccc5c4)cc23)cs1` [AE55] had an IC50 below 1 µM.

As for `COc1cc(-c2cnc3[nH]cc(-c4ccc(O)cc4)c3c2)ccc1O` [AE58], the IC50 is below 1 µM.

Turning to `COc1cc(-c2cnc3[nH]cc(-c4ccccc4OC)c3c2)ccc1O` [AE64], the IC50 is 1 to 5 µM.
